From patent US20240083857A1, “2-Methyl-Quinazolines” (Bayer Pharma Aktiengesellschaft, priority 2017, published 2024) come the findings set out here.

One may read the IC50 as the concentration that gives 50% inhibition.

The target of assay [1] is human SOS1 (nucleotide exchange of K-Ras^G12C) (Homo sapiens, UniProt Q07889). In words: Biochemical assay 2: K-Ras^G12C activation assay by hSOS1 at high GTP concentration (HTRF). The conditions noted are these: high GTP; read-out: Assay 2 (KRAS-Activation by SOS high GTP) activity expressed as IC50.
In assay [2] the target is human SOS1 (loading of human K-Ras^G12C-GDP with fluorescent GTP-analog) (Homo sapiens, UniProt Q07889). As to the kind of experiment: Biochemical assay 3: K-Ras^G12C activation assay by hSOS1 (HTRF). The conditions noted are these: no GTP; read-out: Assay 3 (KRAS-Activation by SOS no GTP) activity expressed as IC50. In general terms: TR-FRET usually uses a lanthanide donor and a delayed reading to cut background.

For `COc1cc2nc(C)nc(NC(C)c3ccc(-c4ccc(CN)cc4)s3)c2cc1OC` (stereo not drawn) [Example 266, N-[1-{5-[4-(aminomethyl)phenyl]thiophen-2-yl}ethyl]-6,7-dimethoxy-2-methylquinazolin-4-amine], the values for the IC50 in assay [1] and in assay [2] were 1700 nM and 3740 nM, respectively.

As for `COc1cc2nc(C)nc(NC(C)c3ccc(-c4ccc(F)cc4CNC(=O)[C@@H]4CCCN4)s3)c2cc1OC` (stereo partly drawn) [Example 314, N-[2-(5-{1-[(6,7-dimethoxy-2-methylquinazolin-4-yl)amino]ethyl}thiophen-2-yl)-5-fluorobenzyl]-L-prolinamide], the IC50 in assay [1] was found to be 87.3 nM; in assay [2], 90.1 nM.

For `COc1cc2nc(C)nc(N[C@H](C)c3cccc(-c4ccn[nH]4)c3)c2cc1OC` [Example 337, 6,7-dimethoxy-2-methyl-N-{(1R)-1-[3-(1H-pyrazol-5-yl)phenyl]ethyl}quinazolin-4-amine], the figures for the 50% inhibitory concentration (IC50) in assay [1] and in assay [2] were 806 nM and 1350 nM, respectively.

On to `COc1cc2nc(C)nc(NC(C)c3ccnc4sccc34)c2cc1OC` (stereo not drawn) [Example 331, 6,7-dimethoxy-2-methyl-N-[1-(thieno[2,3-b]pyridin-4-yl)ethyl]quinazolin-4-amine], for which the 50% inhibitory concentration (IC50) came to 992 nM in assay [1] and 3170 nM in assay [2].

`COc1cc2nc(C)nc(NC(C)c3ccc(-c4ccccc4CN4CC(O)C4)s3)c2cc1OC` (stereo not drawn) [Example 312, 1-[2-(5-{1-[(6,7-dimethoxy-2-methylquinazolin-4-yl)amino]ethyl}thiophen-2-yl)benzyl]azetidin-3-ol]: the IC50 in assay [1] worked out at 66.5 nM; in assay [2], 73.2 nM.

For `COc1cc2nc(C)nc(NC(C)c3ccc(-c4ccccc4CNCC(=O)N4CCc5ccccc5C4)s3)c2cc1OC` (stereo not drawn) [Example 303, 1-(3,4-dihydroisoquinolin-2(1H)-yl)-2-{[2-(5-{1-[(6,7-dimethoxy-2-methylquinazolin-4-yl)amino]ethyl}thiophen-2-yl)benzyl]amino}ethanone], the IC50 amounted to 840 nM in assay [1] and 880 nM in assay [2].

In the case of `COc1cc2nc(C)nc(N[C@H](C)c3cccc(-c4cn[nH]c4C)c3)c2cc1OC` [Example 335, 6,7-dimethoxy-2-methyl-N-{(1R)-1-[3-(5-methyl-1H-pyrazol-4-yl)phenyl]ethyl}quinazolin-4-amine], the IC50 in assay [1] stood at 371 nM; in assay [2], 564 nM.

As for `COc1cc2nc(C)nc(NC(C)c3ccc(-c4ccccc4CNCC(F)F)s3)c2cc1OC` (stereo not drawn) [Example 315, N-{1-[5-(2-{[(2,2-difluoroethyl)amino]methyl}phenyl)thiophen-2-yl]ethyl}-6,7-dimethoxy-2-methylquinazolin-4-amine], the 50% inhibitory concentration (IC50) in assay [1] came to 967 nM; in assay [2], 1280 nM.

In the case of `COc1cc2nc(C)nc(NC(C)c3cccc4ccsc34)c2cc1OC` (stereo not drawn) [Example 15, N-[1-(1-benzothiophen-7-yl)ethyl]-6,7-dimethoxy-2-methylquinazolin-4-amine], the results for the IC50 in assay [1] and in assay [2] were 91.1 nM and 324 nM, respectively.

On to `COc1cc2nc(C)nc(N[C@H](C)c3cccc(-c4c(C)n[nH]c4C)c3)c2cc1OC` [Example 334, N-{(1R)-1-[3-(3,5-dimethyl-1H-pyrazol-4-yl)phenyl]ethyl}-6,7-dimethoxy-2-methylquinazolin-4-amine], for which the 50% inhibitory concentration (IC50) was 773 nM in assay [1] and 1410 nM in assay [2].

As for `COC(=O)CNCc1ccccc1-c1ccc(C(C)Nc2nc(C)nc3cc(OC)c(OC)cc23)s1` (stereo not drawn) [Example 281, methyl N-[2-(5-{1-[(6,7-dimethoxy-2-methylquinazolin-4-yl)amino]ethyl}thiophen-2-yl)benzyl]glycinate], the IC50 is 447 nM in assay [1] and 367 nM in assay [2].

For the compound `COc1cc2nc(C)nc(NC(C)c3ccc(-c4ccc(CN)s4)s3)c2cc1OC` (stereo not drawn) [Example 276, N-{1-[5′-(aminomethyl)-2,2′-bithiophen-5-yl]ethyl}-6,7-dimethoxy-2-methylquinazolin-4-amine], the results for the IC50 in assay [1] and in assay [2] were 1660 nM and 2160 nM, respectively.
